Source: ChEMBL document CHEMBL5696443 (Clin Cancer Res, 2016)

Legend:
[1] = target: Serine/threonine-protein kinase PLK1 (Homo sapiens, UniProt P53350); assay: Inhibition of human PLK1 using casein as substrate in presence of [gamma33P]-ATP by HotSpot assay
[2] = target: CDK9/Cyclin K (Homo sapiens) (UniProt P50750+O75909); assay: Inhibition of human CDK9/CyclinK at 1 uM using KTFCGTPEYLAPEVRREPRILSEEEQEMFRDFDYIADWC as substrate in presence of [gamma33P]-ATP by HotSpot assay relative to control; format: protein-complex assay
[3] = target: Eukaryotic elongation factor 2 kinase (Homo sapiens) (UniProt O00418); assay: Inhibition of human EEF2K at 1 uM using RKKFGESEKTKTKEFL as substrate in presence of [gamma33P]-ATP by HotSpot assay relative to control
[4] = target: Protein kinase C alpha type (Homo sapiens) (UniProt P17252); assay: Inhibition of human PRKCA at 1 uM using ERMRPRKRQGSVRRRV as substrate in presence of [gamma33P]-ATP by HotSpot assay relative to control
[5] = target: Tyrosine-protein kinase Mer (Homo sapiens, UniProt Q12866); assay: Inhibition of human MERTK using poly (Glu, Tyr)4:1 as substrate in presence of [gamma33P]-ATP by HotSpot assay
[6] = system: BaF3; assay: Antitumor activity against mouse BaF3 cells expressing native EML4-ALK implanted in mouse assessed as tumor regression at 50 mg/kg, po administered once daily and measured after 8 days relative to control; format: functional; settings: time 8 day
[7] = target: Serine/threonine-protein kinase 3 (Homo sapiens) (UniProt Q13188); assay: Inhibition of human STK3 at 1 uM using MBP as substrate in presence of [gamma33P]-ATP by HotSpot assay relative to control
[8] = target: Protein kinase C zeta type (Homo sapiens) (UniProt Q05513); assay: Inhibition of human PRKCZ at 1 uM using ERMRPRKRQGSVRRRV as substrate in presence of [gamma33P]-ATP by HotSpot assay relative to control
Sequence of Protein kinase C zeta type (Homo sapiens) (Q05513 whole entry): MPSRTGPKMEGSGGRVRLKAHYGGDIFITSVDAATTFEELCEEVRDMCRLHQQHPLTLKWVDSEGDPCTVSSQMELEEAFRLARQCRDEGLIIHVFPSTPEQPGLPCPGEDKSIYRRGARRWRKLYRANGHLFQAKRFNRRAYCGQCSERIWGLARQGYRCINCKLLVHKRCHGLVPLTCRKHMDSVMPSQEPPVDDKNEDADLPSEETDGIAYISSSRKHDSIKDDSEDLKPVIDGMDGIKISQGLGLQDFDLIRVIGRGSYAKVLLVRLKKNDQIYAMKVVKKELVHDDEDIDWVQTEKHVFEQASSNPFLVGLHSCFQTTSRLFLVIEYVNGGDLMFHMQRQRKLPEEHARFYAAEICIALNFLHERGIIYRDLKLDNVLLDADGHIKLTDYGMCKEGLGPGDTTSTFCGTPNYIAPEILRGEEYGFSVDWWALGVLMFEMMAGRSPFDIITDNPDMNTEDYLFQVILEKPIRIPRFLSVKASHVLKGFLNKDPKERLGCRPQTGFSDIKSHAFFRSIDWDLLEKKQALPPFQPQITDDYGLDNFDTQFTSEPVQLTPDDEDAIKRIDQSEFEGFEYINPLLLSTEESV

[9] = target: Dual specificity protein kinase CLK4 (Homo sapiens) (UniProt Q9HAZ1); assay: Inhibition of human CLK4 at 1 uM using MBP as substrate in presence of [gamma33P]-ATP by HotSpot assay relative to control
Sequence of Dual specificity protein kinase CLK4 (Homo sapiens) (Q9HAZ1 whole entry, looked up): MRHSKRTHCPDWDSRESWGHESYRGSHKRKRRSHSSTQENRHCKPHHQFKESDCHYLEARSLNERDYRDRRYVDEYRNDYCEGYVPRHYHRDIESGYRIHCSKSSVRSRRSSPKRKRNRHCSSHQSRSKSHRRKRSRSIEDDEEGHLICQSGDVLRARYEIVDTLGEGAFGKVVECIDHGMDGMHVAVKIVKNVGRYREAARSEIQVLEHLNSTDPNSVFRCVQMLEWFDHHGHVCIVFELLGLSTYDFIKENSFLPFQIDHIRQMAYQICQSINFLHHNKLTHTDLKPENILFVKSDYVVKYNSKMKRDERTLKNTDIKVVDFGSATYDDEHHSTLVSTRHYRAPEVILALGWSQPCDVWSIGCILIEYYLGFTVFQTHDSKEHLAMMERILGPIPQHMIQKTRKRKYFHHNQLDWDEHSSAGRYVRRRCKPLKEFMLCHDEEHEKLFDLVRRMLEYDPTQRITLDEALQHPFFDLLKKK

[10] = target: Serine/threonine-protein kinase TAO2 (Homo sapiens) (UniProt Q9UL54); assay: Inhibition of human TAOK2 at 1 uM using MBP as substrate in presence of [gamma33P]-ATP by HotSpot assay relative to control
[11] = system: EML4-ALK (Homo sapiens), Q9UM73+Q9HC35 [F1174V]; settings: BaF3, time 3-5 weeks
[12] = target: Ephrin type-B receptor 3 (Homo sapiens) (UniProt P54753); assay: Inhibition of human EPHB3 at 1 uM using poly (Glu, Tyr)4:1 as substrate in presence of [gamma33P]-ATP by HotSpot assay relative to control
Sequence of Ephrin type-B receptor 3 (Homo sapiens) (P54753 whole entry): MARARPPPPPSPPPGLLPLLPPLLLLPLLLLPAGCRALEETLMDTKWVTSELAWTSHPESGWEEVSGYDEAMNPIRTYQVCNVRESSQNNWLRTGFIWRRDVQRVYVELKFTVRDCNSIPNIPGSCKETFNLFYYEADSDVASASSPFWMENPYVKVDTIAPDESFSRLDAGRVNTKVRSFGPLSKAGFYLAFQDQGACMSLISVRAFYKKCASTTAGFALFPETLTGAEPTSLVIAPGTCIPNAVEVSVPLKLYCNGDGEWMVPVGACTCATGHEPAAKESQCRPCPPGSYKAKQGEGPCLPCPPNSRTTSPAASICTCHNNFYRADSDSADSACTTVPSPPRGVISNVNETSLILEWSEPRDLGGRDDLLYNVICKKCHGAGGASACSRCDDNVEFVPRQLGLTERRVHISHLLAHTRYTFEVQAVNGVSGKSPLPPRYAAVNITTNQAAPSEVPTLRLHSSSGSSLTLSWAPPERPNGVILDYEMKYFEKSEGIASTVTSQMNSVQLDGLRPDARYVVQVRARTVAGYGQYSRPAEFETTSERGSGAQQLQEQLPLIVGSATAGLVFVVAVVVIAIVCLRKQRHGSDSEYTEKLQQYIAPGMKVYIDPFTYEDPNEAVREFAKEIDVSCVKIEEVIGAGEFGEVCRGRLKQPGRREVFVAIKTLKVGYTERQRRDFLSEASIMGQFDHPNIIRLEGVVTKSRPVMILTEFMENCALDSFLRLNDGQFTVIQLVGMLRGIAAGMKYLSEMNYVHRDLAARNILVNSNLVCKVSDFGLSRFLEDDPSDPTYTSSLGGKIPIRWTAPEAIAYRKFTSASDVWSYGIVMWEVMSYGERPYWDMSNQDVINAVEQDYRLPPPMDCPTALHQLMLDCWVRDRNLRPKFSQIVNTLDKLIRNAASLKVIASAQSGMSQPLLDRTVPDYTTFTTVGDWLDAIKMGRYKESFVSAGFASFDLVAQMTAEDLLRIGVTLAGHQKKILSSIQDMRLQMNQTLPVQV

[13] = target: Serine/threonine-protein kinase Nek3 (Homo sapiens) (UniProt P51956); assay: Inhibition of human NEK3 at 1 uM using MBP as substrate in presence of [gamma33P]-ATP by HotSpot assay relative to control
[14] = target: Tyrosine-protein kinase ABL1 (Homo sapiens, UniProt P00519, T315I); assay: Inhibition of human ABL1 T315I mutant using EAIYAAPFAKKK as substrate in presence of [gamma33P]-ATP by HotSpot assay
[15] = target: Dual specificity tyrosine-phosphorylation-regulated kinase 2 (Homo sapiens) (UniProt Q92630); assay: Inhibition of human DYRK2 at 1 uM using RRRFRPASPLRGPPK as substrate in presence of [gamma33P]-ATP by HotSpot assay relative to control
[16] = target: Serine/threonine-protein kinase Nek11 (Homo sapiens) (UniProt Q8NG66); assay: Inhibition of human NEK11 at 1 uM using MBP as substrate in presence of [gamma33P]-ATP by HotSpot assay relative to control
Sequence of Serine/threonine-protein kinase Nek11 (Homo sapiens) (Q8NG66 whole entry): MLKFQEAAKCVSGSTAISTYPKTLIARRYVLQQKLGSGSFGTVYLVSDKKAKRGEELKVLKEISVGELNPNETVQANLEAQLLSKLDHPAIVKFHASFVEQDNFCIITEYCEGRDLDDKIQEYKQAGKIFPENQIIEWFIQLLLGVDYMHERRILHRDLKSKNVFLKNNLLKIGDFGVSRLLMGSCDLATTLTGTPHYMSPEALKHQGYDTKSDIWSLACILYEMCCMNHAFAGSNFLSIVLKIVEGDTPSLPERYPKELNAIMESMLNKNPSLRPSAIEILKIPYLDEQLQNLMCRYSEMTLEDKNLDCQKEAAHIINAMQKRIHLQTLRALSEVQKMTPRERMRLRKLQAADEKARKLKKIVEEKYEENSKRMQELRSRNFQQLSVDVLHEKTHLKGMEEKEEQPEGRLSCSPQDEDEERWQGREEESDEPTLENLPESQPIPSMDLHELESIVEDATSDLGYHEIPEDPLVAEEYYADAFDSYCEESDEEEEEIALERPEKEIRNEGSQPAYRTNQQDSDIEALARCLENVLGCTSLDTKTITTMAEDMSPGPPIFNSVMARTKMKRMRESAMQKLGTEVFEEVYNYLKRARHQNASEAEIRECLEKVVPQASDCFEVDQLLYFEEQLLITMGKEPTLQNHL

[17] = system: EML4-ALK (Homo sapiens), Q9UM73+Q9HC35 [G1269A]; settings: BaF3, time 3-5 weeks
[18] = target: Tyrosine-protein kinase receptor UFO (Homo sapiens) (UniProt P30530); assay: Inhibition of human AXL at 1 uM using poly (Glu, Tyr)4:1 as substrate in presence of [gamma33P]-ATP by HotSpot assay relative to control
[19] = target: Serine/threonine-protein kinase pim-2 (Homo sapiens) (UniProt Q9P1W9); assay: Inhibition of human PIM2 at 1 uM using RSRHSSYPAGT as substrate in presence of [gamma33P]-ATP by HotSpot assay relative to control
Sequence of Serine/threonine-protein kinase pim-2 (Homo sapiens) (Q9P1W9 whole entry, looked up): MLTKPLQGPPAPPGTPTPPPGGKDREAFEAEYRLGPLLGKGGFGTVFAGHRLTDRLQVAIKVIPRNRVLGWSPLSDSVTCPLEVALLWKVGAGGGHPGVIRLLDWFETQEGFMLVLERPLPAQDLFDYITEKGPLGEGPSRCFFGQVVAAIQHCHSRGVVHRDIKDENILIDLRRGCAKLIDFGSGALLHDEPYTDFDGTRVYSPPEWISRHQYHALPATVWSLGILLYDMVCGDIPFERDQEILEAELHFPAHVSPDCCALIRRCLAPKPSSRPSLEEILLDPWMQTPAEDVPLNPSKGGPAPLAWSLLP

[20] = target: Insulin-like growth factor 1 receptor (Homo sapiens, UniProt P08069)
Description: Inhibition of IGF-1R phosphorylation in IGF-1 stimulated human HepG2 cells preincubated with compound for 30 mins followed by IGF-1 stimulation for 10 mins by Immunoblot analysis

[21] = target: Serine/threonine-protein kinase PAK 4 (Homo sapiens) (UniProt O96013); assay: Inhibition of human PAK4 at 1 uM using RRRLSFAEPG as substrate in presence of [gamma33P]-ATP by HotSpot assay relative to control
[22] = target: Ribosomal protein S6 kinase beta-2 (Homo sapiens) (UniProt Q9UBS0); assay: Inhibition of human RPS6KB2 at 1 uM using KKRNRTLTK as substrate in presence of [gamma33P]-ATP by HotSpot assay relative to control
[23] = target: Serine/threonine-protein kinase mTOR (Homo sapiens) (UniProt P42345); assay: Inhibition of human MTOR at 1 uM using 4EBP1 as substrate in presence of [gamma33P]-ATP by HotSpot assay relative to control
[24] = target: Hepatocyte growth factor receptor (Homo sapiens, UniProt P08581); assay: Inhibition of human MET using poly (Glu, Tyr)4:1 as substrate in presence of [gamma33P]-ATP by HotSpot assay
[25] = target: Casein kinase I isoform alpha (Homo sapiens) (UniProt P48729); assay: Inhibition of human CSNK1A1 at 1 uM using KRRRAL[pS]VASLPGL as substrate in presence of [gamma33P]-ATP by HotSpot assay relative to control
Sequence of Casein kinase I isoform alpha (Homo sapiens) (P48729 2-337 limits assumed): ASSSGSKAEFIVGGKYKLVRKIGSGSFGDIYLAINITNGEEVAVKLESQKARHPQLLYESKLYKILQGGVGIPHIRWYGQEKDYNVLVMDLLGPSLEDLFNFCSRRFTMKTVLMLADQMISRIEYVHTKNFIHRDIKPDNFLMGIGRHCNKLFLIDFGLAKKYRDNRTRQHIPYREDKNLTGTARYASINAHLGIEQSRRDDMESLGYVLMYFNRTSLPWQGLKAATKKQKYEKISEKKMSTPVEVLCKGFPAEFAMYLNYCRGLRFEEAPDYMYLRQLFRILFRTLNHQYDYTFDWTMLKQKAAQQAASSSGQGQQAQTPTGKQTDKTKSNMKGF

[26] = target: Mitogen-activated protein kinase kinase kinase 7 (Homo sapiens) (UniProt O43318); assay: Inhibition of human MAP3K7 at 1 uM using casein as substrate in presence of [gamma33P]-ATP by HotSpot assay relative to control
Sequence of Mitogen-activated protein kinase kinase kinase 7 (Homo sapiens) (O43318 whole entry): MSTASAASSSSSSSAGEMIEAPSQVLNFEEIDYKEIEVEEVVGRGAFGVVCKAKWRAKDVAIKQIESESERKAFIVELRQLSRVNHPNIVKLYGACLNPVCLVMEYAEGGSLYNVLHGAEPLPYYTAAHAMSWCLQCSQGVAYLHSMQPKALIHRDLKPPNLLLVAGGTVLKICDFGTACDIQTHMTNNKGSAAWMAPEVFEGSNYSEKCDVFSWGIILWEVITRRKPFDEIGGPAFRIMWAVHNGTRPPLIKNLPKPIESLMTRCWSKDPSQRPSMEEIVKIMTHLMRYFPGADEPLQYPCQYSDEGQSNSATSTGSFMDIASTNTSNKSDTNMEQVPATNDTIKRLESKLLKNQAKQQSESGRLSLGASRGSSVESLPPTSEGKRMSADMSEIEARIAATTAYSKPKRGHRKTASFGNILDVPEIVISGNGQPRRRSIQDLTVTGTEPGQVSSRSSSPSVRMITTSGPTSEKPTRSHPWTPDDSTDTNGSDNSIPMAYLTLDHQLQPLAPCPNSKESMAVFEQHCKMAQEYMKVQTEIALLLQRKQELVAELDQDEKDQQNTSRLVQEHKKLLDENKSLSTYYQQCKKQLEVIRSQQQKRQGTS

[27] = target: Serine/threonine-protein kinase TAO3 (Homo sapiens) (UniProt Q9H2K8); assay: Inhibition of human TAOK3 at 1 uM using MBP as substrate in presence of [gamma33P]-ATP by HotSpot assay relative to control
Sequence of Serine/threonine-protein kinase TAO3 (Homo sapiens) (Q9H2K8 whole entry): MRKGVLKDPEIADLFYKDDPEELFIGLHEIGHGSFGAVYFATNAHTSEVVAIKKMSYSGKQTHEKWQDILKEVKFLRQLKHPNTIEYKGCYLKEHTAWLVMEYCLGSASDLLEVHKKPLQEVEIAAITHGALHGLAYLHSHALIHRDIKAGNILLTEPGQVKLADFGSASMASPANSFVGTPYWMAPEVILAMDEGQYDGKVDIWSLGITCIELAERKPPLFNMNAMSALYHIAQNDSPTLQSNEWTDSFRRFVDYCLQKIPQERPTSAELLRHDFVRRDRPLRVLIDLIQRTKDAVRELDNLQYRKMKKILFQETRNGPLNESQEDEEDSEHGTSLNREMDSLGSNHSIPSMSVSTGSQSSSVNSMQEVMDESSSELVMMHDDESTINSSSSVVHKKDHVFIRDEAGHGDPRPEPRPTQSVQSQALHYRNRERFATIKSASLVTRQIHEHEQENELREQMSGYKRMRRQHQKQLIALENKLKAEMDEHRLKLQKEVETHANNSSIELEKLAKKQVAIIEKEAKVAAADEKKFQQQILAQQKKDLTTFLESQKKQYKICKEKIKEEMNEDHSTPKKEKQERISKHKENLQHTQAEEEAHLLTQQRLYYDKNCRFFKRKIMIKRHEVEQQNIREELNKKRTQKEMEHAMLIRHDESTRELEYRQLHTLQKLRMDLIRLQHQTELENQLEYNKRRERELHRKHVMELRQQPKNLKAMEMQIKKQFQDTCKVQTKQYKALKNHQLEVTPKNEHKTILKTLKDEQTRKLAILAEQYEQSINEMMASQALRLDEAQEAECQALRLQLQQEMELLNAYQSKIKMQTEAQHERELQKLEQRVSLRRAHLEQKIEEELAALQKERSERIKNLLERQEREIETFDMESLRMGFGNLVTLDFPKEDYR

[28] = target: Dual specificity tyrosine-phosphorylation-regulated kinase 1A (Homo sapiens) (UniProt Q13627); assay: Inhibition of human DYRK1A at 1 uM using RRRFRPASPLRGPPK as substrate in presence of [gamma33P]-ATP by HotSpot assay relative to control

SMILES: COc1cc(N2CCC(N3CCN(C)CC3)CC2)ccc1Nc1ncc(Cl)c(Nc2ccccc2P(C)(C)=O)n1 [BRIGATINIB]
- IC50 [1]: 611 nM
- inhibition [2]: < 90%
- inhibition [3]: < 90%
- inhibition [4]: < 90%
- IC50 [5]: > 1000 nM
- Activity [6]: 89%
- inhibition [7]: < 90%
- inhibition [8]: < 90%
- inhibition [9]: < 90%
- inhibition [10]: < 90%
- IC90 [11]: 195 nM
- inhibition [12]: < 90%
- inhibition [13]: < 90%
- IC50 [14]: 242 nM
- inhibition [15]: < 90%
- inhibition [16]: < 90%
- IC90 [17]: 22 nM
- inhibition [18]: < 90%
- inhibition [19]: < 90%
- IC50 [20]: 148 nM
- inhibition [21]: < 90%
- inhibition [22]: < 90%
- inhibition [23]: < 90%
- IC50 [24]: > 1000 nM
- inhibition [25]: < 90%
- inhibition [26]: < 90%
- inhibition [27]: < 90%
- inhibition [28]: < 90%
